The values below come from patent US20180290977A1, “KDM4 INHIBITORS” (Albert-Ludwigs-University Freiburg, priority 2017, published 2018).

Where two headings read alike, the source gives them in different places. Bounds are passed on as bounds.

The target of one data set is T1, KDM4A (Homo sapiens, UniProt O75164).
T1 sequence (O75164 1-1064): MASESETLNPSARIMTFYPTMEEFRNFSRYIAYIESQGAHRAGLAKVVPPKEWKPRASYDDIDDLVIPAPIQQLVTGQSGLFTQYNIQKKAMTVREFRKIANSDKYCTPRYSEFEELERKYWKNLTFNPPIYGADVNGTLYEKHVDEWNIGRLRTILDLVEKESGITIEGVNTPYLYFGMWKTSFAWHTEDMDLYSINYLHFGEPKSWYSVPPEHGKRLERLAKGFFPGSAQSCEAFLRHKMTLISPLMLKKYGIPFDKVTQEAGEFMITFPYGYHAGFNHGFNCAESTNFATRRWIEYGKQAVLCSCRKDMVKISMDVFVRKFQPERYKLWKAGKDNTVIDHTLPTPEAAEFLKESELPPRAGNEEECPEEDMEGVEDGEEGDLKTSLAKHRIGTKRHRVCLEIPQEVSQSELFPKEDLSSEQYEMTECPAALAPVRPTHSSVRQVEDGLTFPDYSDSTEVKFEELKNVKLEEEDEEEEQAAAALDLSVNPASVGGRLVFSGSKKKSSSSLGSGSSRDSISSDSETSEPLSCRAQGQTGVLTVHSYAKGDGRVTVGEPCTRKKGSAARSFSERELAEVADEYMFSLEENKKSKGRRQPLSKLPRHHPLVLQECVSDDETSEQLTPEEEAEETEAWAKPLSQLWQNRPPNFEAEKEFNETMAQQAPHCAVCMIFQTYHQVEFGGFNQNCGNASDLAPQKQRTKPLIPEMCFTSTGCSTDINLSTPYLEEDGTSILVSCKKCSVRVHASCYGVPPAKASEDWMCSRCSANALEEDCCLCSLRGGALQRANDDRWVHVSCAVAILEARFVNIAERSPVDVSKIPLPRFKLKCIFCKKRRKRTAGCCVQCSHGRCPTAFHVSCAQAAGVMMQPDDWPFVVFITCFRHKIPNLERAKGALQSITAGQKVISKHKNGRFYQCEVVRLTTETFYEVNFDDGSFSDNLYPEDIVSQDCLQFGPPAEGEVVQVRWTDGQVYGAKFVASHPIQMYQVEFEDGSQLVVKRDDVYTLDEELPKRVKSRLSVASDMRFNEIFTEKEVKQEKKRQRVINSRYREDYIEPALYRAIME
The data set can be described thus: KDM demethylase inhibition (IC50). Format: biochemical.

A further data set addresses T2, KDM4D (Homo sapiens, UniProt Q6B0I6).
T2 sequence (Q6B0I6 1-523): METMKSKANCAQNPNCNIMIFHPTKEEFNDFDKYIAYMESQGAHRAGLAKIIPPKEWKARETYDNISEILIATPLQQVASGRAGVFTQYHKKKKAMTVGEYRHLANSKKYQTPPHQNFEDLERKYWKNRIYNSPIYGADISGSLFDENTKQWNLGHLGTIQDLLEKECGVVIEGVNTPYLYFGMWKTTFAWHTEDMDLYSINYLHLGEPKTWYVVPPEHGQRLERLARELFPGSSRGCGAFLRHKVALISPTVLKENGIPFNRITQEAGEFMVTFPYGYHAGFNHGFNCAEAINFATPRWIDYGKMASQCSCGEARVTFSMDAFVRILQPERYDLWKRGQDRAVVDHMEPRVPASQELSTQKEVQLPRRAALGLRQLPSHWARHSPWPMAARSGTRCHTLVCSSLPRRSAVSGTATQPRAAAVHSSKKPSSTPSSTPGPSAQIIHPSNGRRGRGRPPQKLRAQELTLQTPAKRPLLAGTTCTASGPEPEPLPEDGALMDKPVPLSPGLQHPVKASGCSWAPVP
The data set can be described thus: KDM demethylase inhibition (IC50). The class given is biochemical.

For a further data set, the target named is T3, KDM2A (Homo sapiens, UniProt Q9Y2K7).
T3 sequence (Q9Y2K7 1-1162): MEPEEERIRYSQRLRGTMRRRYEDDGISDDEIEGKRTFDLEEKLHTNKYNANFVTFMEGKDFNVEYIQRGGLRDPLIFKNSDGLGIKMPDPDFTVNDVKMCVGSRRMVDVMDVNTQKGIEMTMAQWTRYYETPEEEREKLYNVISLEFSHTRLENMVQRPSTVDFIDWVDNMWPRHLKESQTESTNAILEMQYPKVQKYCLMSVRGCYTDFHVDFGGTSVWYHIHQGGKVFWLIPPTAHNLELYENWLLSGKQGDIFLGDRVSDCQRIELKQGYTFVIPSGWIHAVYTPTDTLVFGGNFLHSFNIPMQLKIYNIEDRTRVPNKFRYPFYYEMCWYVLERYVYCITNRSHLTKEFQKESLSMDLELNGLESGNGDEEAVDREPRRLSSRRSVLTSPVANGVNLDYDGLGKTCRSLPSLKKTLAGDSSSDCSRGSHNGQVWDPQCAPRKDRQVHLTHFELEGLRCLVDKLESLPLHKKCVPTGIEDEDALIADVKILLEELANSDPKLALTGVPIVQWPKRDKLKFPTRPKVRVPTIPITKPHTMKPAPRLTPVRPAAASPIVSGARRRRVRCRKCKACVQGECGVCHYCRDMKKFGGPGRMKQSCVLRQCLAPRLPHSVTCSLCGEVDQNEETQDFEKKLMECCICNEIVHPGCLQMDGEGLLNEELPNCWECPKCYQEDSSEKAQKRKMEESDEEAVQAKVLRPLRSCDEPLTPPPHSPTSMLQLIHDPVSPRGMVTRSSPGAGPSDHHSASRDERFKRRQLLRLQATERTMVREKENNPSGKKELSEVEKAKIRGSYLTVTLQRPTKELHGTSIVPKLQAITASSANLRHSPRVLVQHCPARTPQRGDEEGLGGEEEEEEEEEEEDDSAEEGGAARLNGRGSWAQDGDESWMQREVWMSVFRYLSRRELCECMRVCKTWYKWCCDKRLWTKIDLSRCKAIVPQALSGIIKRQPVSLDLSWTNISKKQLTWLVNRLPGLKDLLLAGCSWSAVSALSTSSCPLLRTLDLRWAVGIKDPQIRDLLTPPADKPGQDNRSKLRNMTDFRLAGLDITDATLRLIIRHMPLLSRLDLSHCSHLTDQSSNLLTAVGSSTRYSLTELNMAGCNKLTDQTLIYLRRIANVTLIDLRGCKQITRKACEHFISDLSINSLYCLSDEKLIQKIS
The data set can be described thus: KDM demethylase inhibition (IC50). Format: biochemical.

In a further data set the target is KDM5B (Homo sapiens, UniProt Q9UGL1). The data set can be described thus: KDM demethylase inhibition (IC50). Format: biochemical.
Sequence of KDM5B (Q9UGL1 whole entry): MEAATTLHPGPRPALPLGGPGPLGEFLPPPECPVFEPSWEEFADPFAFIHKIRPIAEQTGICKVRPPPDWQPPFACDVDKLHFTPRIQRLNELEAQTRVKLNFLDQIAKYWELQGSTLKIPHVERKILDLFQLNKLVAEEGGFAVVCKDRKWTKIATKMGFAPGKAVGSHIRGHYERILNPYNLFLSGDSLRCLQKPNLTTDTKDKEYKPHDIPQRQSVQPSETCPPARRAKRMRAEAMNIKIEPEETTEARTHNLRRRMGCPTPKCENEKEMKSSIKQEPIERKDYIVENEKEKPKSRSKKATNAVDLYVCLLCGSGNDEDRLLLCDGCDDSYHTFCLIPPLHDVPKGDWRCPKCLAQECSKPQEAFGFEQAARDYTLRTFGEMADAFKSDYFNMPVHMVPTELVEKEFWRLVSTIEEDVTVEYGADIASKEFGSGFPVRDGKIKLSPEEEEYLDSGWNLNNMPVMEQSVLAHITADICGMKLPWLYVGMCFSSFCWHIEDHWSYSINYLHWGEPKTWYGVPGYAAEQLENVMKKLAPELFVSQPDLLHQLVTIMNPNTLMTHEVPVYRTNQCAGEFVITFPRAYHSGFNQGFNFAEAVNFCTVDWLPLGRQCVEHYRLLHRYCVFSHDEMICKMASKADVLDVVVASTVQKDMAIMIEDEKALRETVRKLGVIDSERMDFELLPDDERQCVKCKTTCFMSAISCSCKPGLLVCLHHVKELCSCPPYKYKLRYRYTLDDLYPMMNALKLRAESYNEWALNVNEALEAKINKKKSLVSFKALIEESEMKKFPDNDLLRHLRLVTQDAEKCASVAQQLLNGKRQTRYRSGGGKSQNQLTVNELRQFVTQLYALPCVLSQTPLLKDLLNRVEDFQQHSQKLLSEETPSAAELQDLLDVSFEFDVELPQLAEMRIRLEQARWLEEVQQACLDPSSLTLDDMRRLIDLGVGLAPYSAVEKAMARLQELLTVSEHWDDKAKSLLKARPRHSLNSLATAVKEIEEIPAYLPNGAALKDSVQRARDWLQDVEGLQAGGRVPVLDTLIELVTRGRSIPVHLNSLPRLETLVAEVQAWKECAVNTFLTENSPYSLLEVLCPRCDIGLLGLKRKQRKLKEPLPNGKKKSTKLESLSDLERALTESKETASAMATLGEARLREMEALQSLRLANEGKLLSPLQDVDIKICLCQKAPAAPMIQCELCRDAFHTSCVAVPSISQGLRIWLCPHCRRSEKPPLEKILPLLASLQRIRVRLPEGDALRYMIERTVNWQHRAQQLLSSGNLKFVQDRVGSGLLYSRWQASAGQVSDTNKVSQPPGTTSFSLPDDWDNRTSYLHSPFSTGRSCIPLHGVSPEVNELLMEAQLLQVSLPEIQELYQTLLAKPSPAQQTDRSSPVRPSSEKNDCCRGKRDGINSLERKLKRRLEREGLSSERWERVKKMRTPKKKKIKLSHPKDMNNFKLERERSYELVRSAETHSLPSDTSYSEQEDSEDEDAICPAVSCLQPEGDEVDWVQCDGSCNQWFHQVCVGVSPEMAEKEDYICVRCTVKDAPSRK
For a further data set, the target named is KDM6A (Homo sapiens, UniProt O15550). The data set can be described thus: KDM demethylase inhibition (IC50). The class given is biochemical.
Sequence of KDM6A (O15550 whole entry): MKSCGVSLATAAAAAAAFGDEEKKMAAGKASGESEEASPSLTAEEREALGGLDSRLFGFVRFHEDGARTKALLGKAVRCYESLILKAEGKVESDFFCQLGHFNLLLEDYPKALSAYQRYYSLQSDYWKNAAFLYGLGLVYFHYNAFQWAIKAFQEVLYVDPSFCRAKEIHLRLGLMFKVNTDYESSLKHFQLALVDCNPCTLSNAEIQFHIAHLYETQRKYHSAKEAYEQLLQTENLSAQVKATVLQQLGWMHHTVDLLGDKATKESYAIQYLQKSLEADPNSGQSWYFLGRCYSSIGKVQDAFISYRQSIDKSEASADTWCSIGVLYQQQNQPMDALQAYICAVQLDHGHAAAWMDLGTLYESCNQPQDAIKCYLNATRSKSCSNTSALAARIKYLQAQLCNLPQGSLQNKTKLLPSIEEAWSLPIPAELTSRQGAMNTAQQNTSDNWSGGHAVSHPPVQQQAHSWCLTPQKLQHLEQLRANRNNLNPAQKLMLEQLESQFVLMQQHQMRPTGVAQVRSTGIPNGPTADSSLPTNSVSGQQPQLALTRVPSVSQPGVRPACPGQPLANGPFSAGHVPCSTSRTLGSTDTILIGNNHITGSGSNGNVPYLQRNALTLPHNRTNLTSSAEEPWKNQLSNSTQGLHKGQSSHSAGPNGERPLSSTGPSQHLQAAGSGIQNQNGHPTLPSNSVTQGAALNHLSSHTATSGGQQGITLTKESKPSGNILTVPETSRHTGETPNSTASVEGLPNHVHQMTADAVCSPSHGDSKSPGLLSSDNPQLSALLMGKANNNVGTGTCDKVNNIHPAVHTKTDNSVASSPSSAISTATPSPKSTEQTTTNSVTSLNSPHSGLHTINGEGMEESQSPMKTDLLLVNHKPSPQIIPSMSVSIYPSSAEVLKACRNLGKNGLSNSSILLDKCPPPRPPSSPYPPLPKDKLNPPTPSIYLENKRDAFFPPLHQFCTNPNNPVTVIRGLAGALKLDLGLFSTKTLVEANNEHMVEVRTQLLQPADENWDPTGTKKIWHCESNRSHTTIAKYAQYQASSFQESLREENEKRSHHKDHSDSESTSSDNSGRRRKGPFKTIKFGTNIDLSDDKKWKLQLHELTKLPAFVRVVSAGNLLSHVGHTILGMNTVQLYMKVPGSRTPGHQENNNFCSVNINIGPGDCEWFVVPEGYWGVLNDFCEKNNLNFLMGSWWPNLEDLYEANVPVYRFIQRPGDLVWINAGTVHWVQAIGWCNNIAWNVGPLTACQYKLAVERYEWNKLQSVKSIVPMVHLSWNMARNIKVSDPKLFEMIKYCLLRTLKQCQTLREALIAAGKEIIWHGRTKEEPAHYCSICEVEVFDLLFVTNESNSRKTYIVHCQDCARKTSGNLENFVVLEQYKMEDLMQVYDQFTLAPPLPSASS
Data set [1] in a line: Pharmacokinetic study iv/po. The class given is in vivo. To be noted: Dose iv/po 5/10 mg/kg.
[2] abbreviates: read-out: IC50, demethylase activity.

As for `CN(c1ccccc1)c1ccc2c(c1)CCC[C@H]2CNc1cnccc1C(=O)O` [Compound I, 3-({[(1R)-6-[methyl(phenyl)amino]-1,2,3,4-tetrahydronaphthalen-1-yl]methyl}amino)pyridine-4-carboxylic Acid], the IC50 on KDM4A (read-out: Compound I IC50) was 0.104 µM; at KDM4A (setting [2]), below 0.105 µM; at KDM4D (read-out: Compound I IC50), 0.104 µM; on KDM4D (setting [2]) it was below 0.105 µM; against KDM2A, above 10 µM; at KDM5B (read-out: Compound I IC50, KDM5B), 0.75 µM. The compound also returned a half-inhibitory concentration (IC50) on KDM6A above 10 µM. The “effect on the demethylase activity of KDM5B” value at KDM5B is listed as “weak effect”. The “po 1/2” value in data set [1] came to 2.57 h. The Vd in data set [1] (plasma, 5 mg/kg, read-out: Vz (mL/kg), apparent volume of distribution during terminal phase) was found to be 666 mL/kg. The same compound showed an exposure (AUC) in data set [1] (plasma) of 10400 ng·h/mL.
